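Five concentrations, 48 hours, 96-well plates. Definition used: TGI = concentration required for complete inhibition of growth.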
Columns and labels:
Assay in all cases: NCI-60 cell line screen, 48 h
CCRF-CEM leukemia = test system: CCRF-CEM leukemia
DLD-1 colon = test system: DLD-1 colon
HL-60(TB) leukemia = test system: HL-60(TB) leukemia
HOP-18 NSCLC = test system: HOP-18 NSCLC
LXFL 529 NSCLC = test system: LXFL 529 NSCLC
M19-MEL melanoma = test system: M19-MEL melanoma
OVCAR-4 ovarian = test system: OVCAR-4 ovarian
SK-MEL-5 melanoma = test system: SK-MEL-5 melanoma
UO-31 renal = test system: UO-31 renal
CAKI-1 renal = test system: CAKI-1 renal
IGROV1 ovarian = test system: IGROV1 ovarian
SW-620 colon = test system: SW-620 colon

SMILES | TGI (CCRF-CEM leukemia) | TGI (DLD-1 colon) | TGI (HL-60(TB) leukemia) | TGI (HOP-18 NSCLC) | TGI (LXFL 529 NSCLC) | TGI (M19-MEL melanoma) | TGI (OVCAR-4 ovarian) | TGI (SK-MEL-5 melanoma) | TGI (UO-31 renal) | TGI (CAKI-1 renal) | TGI (IGROV1 ovarian) | TGI (SW-620 colon)
O=C(NN1C(=O)C(Cl)C1c1ccccc1Cl)c1ccccc1O (stereo unspecified) | > 100 µM | > 100 µM | > 100 µM | > 100 µM | > 100 µM | > 100 µM | > 100 µM | > 100 µM | > 100 µM | – | – | –
Cc1ccc(NC(=O)/C(=N/NC(=O)C[N+](C)(C)C)c2nc3ccccc3[nH]c2=O)cc1 | – | > 100 µM | – | > 100 µM | > 100 µM | > 100 µM | > 100 µM | > 100 µM | > 100 µM | > 100 µM | > 100 µM | 33.8 µM
COc1cc2c(c(OC)c1OC)-c1ccc(SC)c(=O)cc1[C@@H](NCc1cccc([N+](=O)[O-])c1)CC2 | > 100 µM | > 100 µM | > 100 µM | > 100 µM | > 100 µM | > 100 µM | > 100 µM | – | > 100 µM | > 100 µM | > 100 µM | > 100 µM
CCOC(OCC)C(CC)[Se]c1ccccc1 (stereo unspecified) | > 100 µM | > 100 µM | 19 µM | > 100 µM | > 100 µM | > 100 µM | > 100 µM | > 100 µM | > 100 µM | > 100 µM | > 100 µM | –
COc1ccc(C2=C(Cl)c3cc(OC)c(OC)cc3C2)cc1OC | > 100 µM | > 100 µM | > 100 µM | > 100 µM | > 100 µM | > 100 µM | > 100 µM | > 100 µM | > 100 µM | – | > 100 µM | > 100 µM
Cn1cnc(SC2=C3C(=O)C=C4S[C@H]5C[C@]42c2c(c(O)c4c6c2=[N+]3CCC=6C=N4)N5)c1CC(N)C(=O)O (stereo partly specified) | 45.9 µM | 31.4 µM | 38.8 µM | > 100 µM | 27.1 µM | 21.5 µM | 31.1 µM | 26.4 µM | 37.6 µM | 79.1 µM | 30.2 µM | 18.5 µM
CCOc1ccc(NCC2CC/C(=C\c3ccc(Cl)cc3)C2=O)cc1 (stereo unspecified) | 22.8 µM | 26.6 µM | 37.3 µM | 54.6 µM | 25.8 µM | > 58.6 µM | > 75.3 µM | > 59.2 µM | > 58.5 µM | > 73.8 µM | > 50.6 µM | 39.6 µM
COc1ccc(N=Nc2c(-c3ccccc3)nn(C(=O)CC(=O)Nc3ccccc3Cl)c2-c2ccccc2)cc1 | > 100 µM | > 100 µM | > 100 µM | > 100 µM | > 100 µM | > 100 µM | > 100 µM | > 100 µM | > 100 µM | > 100 µM | > 100 µM | > 100 µM
CC(=O)OCCOCNC(=S)N/N=C(\C)c1cccs1 | > 100 µM | > 100 µM | > 100 µM | > 100 µM | > 100 µM | > 100 µM | > 100 µM | > 100 µM | > 100 µM | – | > 100 µM | > 100 µM
c1ccc2c(c1)Sc1ccccc1N2C1CN2CCC1CC2 (stereo unspecified) | 33.9 µM | 29.6 µM | 32 µM | 47.5 µM | 30.6 µM | 29.7 µM | 35.2 µM | 29.9 µM | 39.6 µM | 33.9 µM | 42.3 µM | 33.2 µM

From PubChem BioAssay (NCI)
